Data as given in US8541670B2, “Compositions and methods for inhibiting tumor cell growth” (priority 2007, dated 2013).
Where no end group is shown, it is not given here. red fluorescent dye = not defined here

Assays:
[1] = molecular target: Abl (Homo sapiens, UniProt P00519); assay: In vitro kinase assay Abl; assay type: biochemical; conditions: ten times higher concentration than 0.1 μM
Method: As a specific substrate, the phosphorylation level of GSK-3[…] at Ser-9 was also evaluated. […] The decrease was specific to the AKT phosphorylation site on GSK-3[…] at Ser-9, since a change in the phosphorylation level of GSK-3[…] at Tyr-216 or GSK-3[…] at Tyr-279 was not observed. Moreover, the in vivo reduction of the phosphorylation of AKT substrates was more obvious at the injection site, since a significant change in the phosphorylation of AKT substrates in the frontal cortex or cerebellum between the two hemispheres was not observed. […] To test the specificity/selectivity of ZaTa as the inhibitor of AKT1 versus the other major kinases, a series of in vitro kinase assays was performed at IC50 for AKT1 and at ten times higher concentrations. A panel of the following 32 kinases was first tested in vitro using the active form of each kinase and a specific substrate: AKT2, AKT3, PKA, PKC[…], PKC, PI3K[…], PI3K[…], PI3K, SGK, PAK2, PAK3, SAPK2/p38, Abl, CaMKII, CDK1/cyclinB, CDK5/p35, CK1, CK2, CSK, GSK3[…], GSK3[…], JNK1[…]1, MAPK1, p70S6K, PDGFR[…], PDGFR[…], PDK1, PKG1[…], TrkB, JAK2, JAK3, and Syk. […] However, at ten times higher concentration, ZaTa inhibited AKT2 (63%), PI3K[…] (72%), p70S6K (64%), SGK (73%), PAK3 (83%), JAK3 (79%), TrkB (84%), and Abl (42%). […]

[2] = molecular target: T1, SGK (Homo sapiens, UniProt O00141); assay: Cell-based kinase assay, phosphorylation of intracellular substrate (Ser-421 Huntingtin)
T1 construct: endogenous in cells
T1 sequence (O00141 1-431): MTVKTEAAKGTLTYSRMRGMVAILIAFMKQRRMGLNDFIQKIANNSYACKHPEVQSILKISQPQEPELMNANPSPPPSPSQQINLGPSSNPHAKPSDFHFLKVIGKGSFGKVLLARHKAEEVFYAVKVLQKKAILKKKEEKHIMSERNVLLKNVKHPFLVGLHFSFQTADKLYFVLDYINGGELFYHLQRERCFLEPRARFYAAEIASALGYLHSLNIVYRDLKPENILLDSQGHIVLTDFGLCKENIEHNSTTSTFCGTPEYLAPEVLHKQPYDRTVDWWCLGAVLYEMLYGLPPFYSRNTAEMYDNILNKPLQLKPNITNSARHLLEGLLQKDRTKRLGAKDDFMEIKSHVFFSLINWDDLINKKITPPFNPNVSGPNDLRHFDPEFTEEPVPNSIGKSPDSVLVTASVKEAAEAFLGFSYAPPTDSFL
Method: As a specific substrate, the phosphorylation level of GSK-3[…] at Ser-9 was also evaluated. […] The decrease was specific to the AKT phosphorylation site on GSK-3[…] at Ser-9, since a change in the phosphorylation level of GSK-3[…] at Tyr-216 or GSK-3[…] at Tyr-279 was not observed. Moreover, the in vivo reduction of the phosphorylation of AKT substrates was more obvious at the injection site, since a significant change in the phosphorylation of AKT substrates in the frontal cortex or cerebellum between the two hemispheres was not observed. […] To test the specificity/selectivity of ZaTa as the inhibitor of AKT1 versus the other major kinases, a series of in vitro kinase assays was performed at IC50 for AKT1 and at ten times higher concentrations. […]
Phosphorylation sites for kinases analyzed herein included Ser-235/236 S6 (a substrate for p70S6K), Tyr-207 CRKL (a substrate for Abl; Zipfel, et al. (2004) supra), Ser-241 PDK1 (a substrate for PI3K), Tyr-1022/1023 JAK1 (a substrate for JAK3; Wang, et al. (2003) supra), Ser-421 Huntingtin (a substrate for SGK; Rangone, et al. (2004) supra), Tyr-783 PLC (a substrate for TrkB; Middlemas, et al. (1994) supra), and Ser-338 cRaf (a substrate for PAK3; King, et al. (1998) supra).

[3] = tested on: olfactory bulb cells; assay: In vivo TUNEL in olfactory bulb after repeated intranasal delivery; set-up: species or system C57BL/6 mice; conditions: repeated intranasal treatment for three days
Source text: To confirm the apoptotic inducing effect of ZaTa in vivo, ZaTa was delivered to the mouse brain via the nasal cavity, a minimally invasive procedure compared to the stereotactic surgery. Intranasal delivery of compounds into the brain is an efficient and effective way for local delivery of compounds, without the need for passing the blood brain barriers, the major obstacle for studying the effect of different inhibitors/activators in CNS (Vyas, et al. (2005) Curr. Drug Deliv. 2:165-175; Hrafnkelsdottir, et al. (2005) Biol. Pharm. Bull. 28:1038-1042). […] This was visualized by double labeling of the brain sections with fluorescent TUNEL and a nuclear marker.
Depending on the intended use, a pharmaceutical composition of the invention can be administered by any suitable means, including parenteral injection (such as intraperitoneal, subcutaneous, intratumoral or intramuscular injection), orally or by topical application (e.g., transdermal or via a mucosal surface). By pharmaceutically acceptable formulation is meant, a composition or formulation that allows for the effective distribution of the nucleic acid molecules of the instant invention in the physical location most suitable for their desired activity. […]

Chain of Abl (P00519 whole entry, species assumed): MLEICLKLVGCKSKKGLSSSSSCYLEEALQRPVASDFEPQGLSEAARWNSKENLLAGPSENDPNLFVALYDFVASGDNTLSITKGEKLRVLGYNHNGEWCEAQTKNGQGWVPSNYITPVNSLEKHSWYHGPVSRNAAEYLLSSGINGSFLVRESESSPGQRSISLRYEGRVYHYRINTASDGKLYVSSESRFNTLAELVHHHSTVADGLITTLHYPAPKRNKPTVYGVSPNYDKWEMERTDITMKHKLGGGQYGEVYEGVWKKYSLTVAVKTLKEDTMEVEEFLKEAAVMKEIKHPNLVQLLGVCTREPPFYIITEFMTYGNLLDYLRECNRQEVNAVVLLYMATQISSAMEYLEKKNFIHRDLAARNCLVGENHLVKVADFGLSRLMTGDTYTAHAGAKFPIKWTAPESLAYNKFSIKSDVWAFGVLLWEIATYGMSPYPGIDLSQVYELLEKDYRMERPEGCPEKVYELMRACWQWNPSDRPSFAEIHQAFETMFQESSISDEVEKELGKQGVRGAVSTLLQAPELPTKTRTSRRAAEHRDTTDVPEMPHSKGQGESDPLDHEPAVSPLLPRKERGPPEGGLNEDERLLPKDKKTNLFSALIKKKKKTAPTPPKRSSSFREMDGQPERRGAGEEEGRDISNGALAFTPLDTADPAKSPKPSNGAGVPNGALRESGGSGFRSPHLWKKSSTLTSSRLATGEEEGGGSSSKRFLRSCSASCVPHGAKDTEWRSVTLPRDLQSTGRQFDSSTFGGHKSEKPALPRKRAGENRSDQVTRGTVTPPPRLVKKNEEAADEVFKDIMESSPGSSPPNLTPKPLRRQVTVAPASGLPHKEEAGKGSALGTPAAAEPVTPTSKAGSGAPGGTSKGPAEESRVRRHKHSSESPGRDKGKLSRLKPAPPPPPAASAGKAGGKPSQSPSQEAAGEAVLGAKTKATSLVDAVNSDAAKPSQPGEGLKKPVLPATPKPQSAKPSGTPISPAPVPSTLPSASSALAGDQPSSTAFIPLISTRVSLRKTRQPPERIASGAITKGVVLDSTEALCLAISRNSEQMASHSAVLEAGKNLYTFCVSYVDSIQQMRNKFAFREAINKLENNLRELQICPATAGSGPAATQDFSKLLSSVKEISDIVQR

Row | Substance | inhibition of Abl [1] | inhibition of SGK in cells [2] | number of apoptotic cells in olfactory bulb [3]
1 | AKRVKGRTWTLCGTPEY [ZaTa] | 42% | – | –
2 | labeled ZaTa: ZaTa peptide labeled with a red fluorescent dye at its N-terminus ({red fluorescent dye}-AKRVKGRTWTLCGTPEY; reading uncertain) | – | did not cause inhibition | significantly increased
